According to patent US20240228536A1, “PEPTIDES FOR USE IN SKIN AND HAIR PIGMENTATION” (Follicum AB, priority 2020, published 2024):
Peptide text beside a SMILES is read from it.

Key:
[1] = Stability study, purity of FOL-005 by HPLC on storage; format: physicochemical
Protocol: FOL-005 lyophilized powder was dissolved in phosphate/citrate buffer of pHs 5, 6, 7 or 7.6. Samples of each formulation were analysed for purity using high-pressure liquid chromatography after up to 3 months of storage at 25° C. respectively. In addition, an essentially water-free formulation of FOL-005 was stored at 25° C. and samples were analysed for purity after up to 12 months of storage.
FOL-005/sucrose lyophilized powder was formulated to a suspension in dried or un-dried isopropyl myristate, paraffin oil/petrolatum, Sorbitan laurate and glyceryl behenate. Samples of each formulation were analysed for purity using high pressure liquid chromatography after up to 12 months of storage at 2-8, 25 and 30° C. respectively.

[2] = Solubility of FOL-005 in propylene glycol; format: physicochemical; conditions: in propylene glycol at room temperature
skin equivalents = assay: Total melanin assay; format: cell-based, human; conditions: experiment 2, 10 mg/ml topical, day 20, n=4
Protocol: The skin equivalents used in this study was from the same donors as in Example 2. The determination of the total melanin content of the skin equivalent was determined using a total melanin assay.
The total melanin content of the SE was calculated by dissolving the SE in Soluene and reading the absorbance against a standard curve. The SEs were removed from culture on day 20 and washed with PBS. They were then transferred to a glass centrifuge tube and 500 μl Soluene added. The tubes were then covered with […]®, gently vortexed and placed on the Thermomixer at 50° C. for 1 hour. The tubes were then gently vortexed and 150 μl of the sample and synthetic melanin standards pipetted in triplicate into a glass 96 well plate. The absorbance was then measured at 490 nm on a Spectrophotometer. Results are presented in μg/ml against a standard curve. The change of melanin content is expressed as a percentage change versus vehicle control samples. An ANOVA (with Dunnett's post-test) was used for the statistical analysis.
Three experiments were conducted, and the same donors were used as in Example 2. The sample sizes were as follows: experiment 1 n=2, experiment 2 n=4 and experiment 3 n=7. Peptides 1 (SEQ ID NO: 2), 3 (SEQ ID NO: 3) and 4 (SEQ ID NO: 4) were tested.

skin equivalents (SEs) = assay: H&E and Warthin Starry staining of skin equivalents; format: cell-based, human; conditions: day 20
Source text: Two skin equivalents (SEs) were used from one donor.
The analysis was achieved using the Warthin Starry assay using our recently published method (Joly-Tonetti et al 2016) and hematoxylin&eosin (H&E) staining.
The SEs were stained with Warthin Starry stain to visualise and quantify the melanin in sections. The SEs were removed from culture on day 20 and washed in PBS. They were then flash frozen in liquid nitrogen and mounted in OCT for sectioning. 10 μm sections were cut using a cryostat, the sections collected on slides and fixed in Acetone for 10 mins. The OCT was removed from the section by washing in acidulated water for 20 mins. The slides were then incubated in 1% silver nitrate solution for 1 hour at 43° C. […] The slides were stained for 2 mins then the staining was stopped by running the slides under hot tap water. Slides were then mounted using Histomount. Brightfield images were captured using a Nikon Eclipse microscope. Image analysis of the melanin density in sections was performed using Image J and densitometric thresholding. Results are presented in pixel intensity units. For the hematoxylin&eosin (H&E) staining, the SEs were flash frozen, sectioned and fixed as above. The slides were then washed in dH2O to remove the OCT for 20 mins. Haematoxylin was filtered using filter paper into a Coplin jar. Further Coplin jars were also prepared containing the following: Tap Water, Scott's Tap Water, 0.25% Eosin, 50% Ethanol, 70% Ethanol, 90% Ethanol, Ethanol and Histoclear. The slides were then placed into Haematoxylin for 2 mins, and then placed into tap water for 30 secs, Scott's Tap Water for 1 min & Eosin for 2 mins. The slides were then dehydrated through the Ethanol (1 min each) then placed into Histoclear for 2 mins and mounted using Histomount. Brightfield images were captured using a Nikon Eclipse microscope.

[3] = system: Pigmented skin equivalents (SEs), Melanoderms Mel-300-A (donor) and Mel-300-C-2 (donor); assay: Skin equivalent culture, photographic assessment of pigmentation; format: cell-based, human
Protocol: The skin equivalent surface area was 63.6 mm^2. Other equipment used included SMZ1000 Stereo Microscope (Nikon); UC30 Microscope Camera (Olympus); Phosphate-Buffered Saline (PBS); 6-well Tissue Culture Plates (Sarstedt); Image J software (https://imagej.nih.gov); Paintshop Photo Pro Software (Corel). The Melanoderms were prepared by carefully removing the agarose with sterile forceps and placing them in pre-warmed culture medium (37° C.) for an hour prior to treatment. The Melanoderms were then topically treated (without rubbing) with 25 μl of the various peptides, dissolved in dH2O at 10 mg/ml. […] The SEs were examined and removed from culture when skin darkening became visible. The pigmentation of the Melanoderms was macroscopically assessed by capturing high-resolution images using the Olympus microscope camera. […] They were then placed into a 6-well plate containing 1 ml PBS/well and images captured at ×8 magnification. The images were then processed using Image J & Paintshop Photo Pro software, to determine a quantifiable pixel area, which equated to the level of pigmentation present in the skin equivalent. The image brightness was normalised and the image gray-scaled using Paintshop Photo Pro, then Image J was used to threshold the image. The pigmentation was quantified by assessing total pixel area of pigmentation coverage in a fixed sample area. An ANOVA test (Dunnett's post-test) was used for the statistical analysis. Three different experiments were conducted. In the first, skin equivalents from both donors were included, and in experiment 2 and 3, only the […] donor was included. The SE of the […] donor from the first experiment received 5 treatments of 25 μl of peptide solution at 10 mg/ml; starting on the first day following receipt then on days 3, 5, 9 and 12. Peptides 1 (SEQ ID NO: 2), 3 (SEQ ID NO: 3) and 4 (SEQ ID NO: 4) were tested. The images were taken on Day 14. In experiment 2, peptide 3 and 4 were selected for testing to see if it had any efficacy in reducing melanin content or the distribution of melanin throughout the SE. This time, 5 SEs were used per treatment to improve statistical robustness. The experiment was continued for 20 days with treatments on days 0, 3, 7 and 12 and medium changes every other day. In experiment 3 a more highly pigmented SE ([…] donor melanocytes) was used and with an increased sample size with n=7 per treatment. […] Treatment was repeated on days 5, 9, 12 and 15 with medium changed every other day.

| Molecule | degradation of FOL-005 ([1]; at various pH (buffers)) | degradation of FOL-005 ([1]; water free conditions) | solubility of FOL-005 [2] [µg/mL] | total melanin content of skin equivalents vs vehicle control (skin equivalents) | melanin content and distribution in SE sections (Warthin Starry) (skin equivalents (SEs); one of the donors (FIG. 3A)) | melanin content and distribution in SE sections (Warthin Starry) (skin equivalents (SEs); second donor (FIG. 3B-D)) | pigmentation of skin equivalents (photographic assessment) compared to vehicle control ([3]; experiment 1, donor, 5 topical treatments of 25 μl at 10 mg/ml in dH2O, images Day 14) | pigmentation of skin equivalents (photographic assessment) compared to vehicle control ([3]; experiment 2, donor, 10 mg/ml, 20 days, n=5) | pigmentation of skin equivalents (photographic assessment) compared to vehicle control ([3]; experiment 3, more highly pigmented SE (donor), 10 mg/ml, n=7) |
| --- | --- | --- | --- | --- | --- | --- | --- | --- | --- |
| CC[C@H](C)[C@H](NC(=O)[C@H](CC(=O)O)NC(=O)CNC(=O)[C@H](CC(=O)O)NC(=O)[C@H](Cc1ccc(O)cc1)NC(=O)[C@@H](NC(=O)[C@H](CC(=O)O)NC(=O)[C@@H](N)C(C)C)[C@@H](C)O)C(=O)N[C@@H](CO)C(=O)N[C@H](C(=O)N[C@H](C(=O)N[C@@H](Cc1ccc(O)cc1)C(=O)NCC(=O)N[C@@H](CC(C)C)C(=O)N[C@@H](CCCNC(=N)N)C(=O)O)C(C)C)C(C)C [FOL-005] (H-VDTYDGDISVVYGLR-OH; N-terminus and C-terminus assumed) | degraded | very limited | 160 | – | – | – | – | – | – |
| Ala-Ala-His-Met (AAHM; (1)..(4) Peptide 3) | – | – | – | no difference | reduction in melanin in the upper epidermal layers | did not appear to have any obvious effect | equivalent or slightly less pigmented than the vehicle control | slight decrease in pigmentation | little effect |
